Results: patent publication US12264299B2, “Detergent composition” (SYMRISE AG, priority 2018, dated 2025)

System: Corynebacterium xerosis ATCC373 and Staphylococcus aureus ATCC6538
Assay: Microbial counts on inoculated synthetic fabric after washing and drying
Type: cell-based
Details: comparison of groups, 24 and 72 hours results
From the text: The objective of the following examples and comparison examples has been to evaluate bactericide and bacteriostatic performance of a specific active composition (SymClariol, Symrise AG) at 0.25% and 1% in a regular fabric softener composition.
Inoculate Corynebacterium xerosis ATCC373 and Staphylococcus aureus ATCC6538 in white synthetic fabric 89% polyester and 11% elastane. SymClariol stands for 1,2-decanediol and is a commercially available product distributed by Symrise AG.
Cut the fabric in pieces of 10 cm×10 cm (100 cm^2) to be inoculate.
It was used: • Corynebacterium xerosis ATCC373 strain in saline solution 0.85% • Staphylococcus aureus ATCC6538 strain in saline solution 0.85% • Sterile Saline solution to wet the fabric • Liquid laundry detergent Tixan Ipê batch 065091 16:30 manufactured in March, 2016 and expiration date March, 2018 • Regular Fabric Softener+Active 1 (SymClariol at 0.25%) • Regular Fabric Softener+Active 2 (SymClariol at 1%) • Regular Fabric Softener Placebo • Wash machine Electrolux
All materials were analyzed before the beginning of the tests and had <10 CFU/g for bacteria and fungi and absence of pathogens. An initial wash of the tissue was carried out with the purpose of reducing the initial microbiological count and subsequent counting for a reduction confirmation of 10 CFU/g and absence of pathogens. […]

## CCCCCCCCC(O)CO (stereo not shown) [SymClariol, 1,2-decanediol]
  bactericide and bacteriostatic performance (in words): improved the bactericide and bacteriostatic performance
